Counter-ions that a name gives are not always drawn. Like-named read-outs stand apart in the source and are kept apart here.
Experiments:
[1] = test system: MCC13 cells (VN-MCC); assay: qHTS cell viability (CellTiter-Glo, 72 h; primary and follow-up small molecule screen); type: cell-based, human
[2] = test system: MCC26 cells (VN-MCC); assay: as above; type: cell-based, human
[3] = test system: UISO cells (VN-MCC); assay: as above; type: cell-based, human
[4] = test system: WAGA cells (VP-MCC); assay: as above; type: cell-based, human
[5] = test system: MKL-1 cells (VP-MCC); assay: as above; type: cell-based, human
[6] = test system: MKL-2 cells (VP-MCC); assay: as above; type: cell-based, human
[7] = test system: HACAT cells; assay: qHTS cell viability (CellTiter-Glo, 72 h; primary screen), control cell line; type: cell-based, human
[8] = test system: HEK293T cells; assay: as above; type: cell-based, human
[9] = test system: NIH-3T3 cells; assay: as above; type: cell-based, mouse
[10] = test system: CRL-7250 cells; assay: as above; type: cell-based
[11] = test system: VP-MCC cell lines (WAGA, MKL-1, MKL-2); assay: qHTS cell viability, VP-MCC cell lines as a group (mean AUC, VP.MCC.avg); type: cell-based, human
[12] = test system: VN-MCC cell lines (MCC13, MCC26, UISO); assay: qHTS cell viability, VN-MCC cell lines as a group (mean AUC, VN.MCC.avg); type: cell-based, human
[13] = test system: six MCC cell lines and four control cell lines; assay: qHTS cell viability, all 10 cell lines screened; type: cell-based
[14] = test system: MCC cell lines (WAGA, MKL-1, MKL-2, MCC13, MCC26, UISO); assay: qHTS cell viability, all six MCC cell lines as a group (mean AUC, MCC.avg); type: cell-based, human
[15] = area under the dose-response curve, MCC13 cells, AUC<450 = reduced viability
[16] = area under the dose-response curve, MCC26 cells, AUC<450 = reduced viability
[17] = area under the dose-response curve, UISO cells, AUC<450 = reduced viability
[18] = area under the dose-response curve, WAGA cells, AUC<450 = reduced viability
[19] = area under the dose-response curve, MKL-2 cells, AUC<450 = reduced viability
[20] = area under the dose-response curve, HACAT control cells, AUC<450 = reduced viability
[21] = area under the dose-response curve, HEK293T control cells, AUC<450 = reduced viability
[22] = area under the dose-response curve, NIH3T3 control cells, AUC<450 = reduced viability
[23] = area under the dose-response curve, CRL7250 control cells, AUC<450 = reduced viability

COC[C@H]1OC(=O)c2coc3c2[C@@]1(C)C1=C(C3=O)[C@@H]2CC[C@H](O)[C@@]2(C)C[C@H]1OC(C)=O [17_-hydroxy Wortmannin]
Area under the dose-response curve (AUC) MCC13 Replicate 1 [1]: 446.4 | Area under the dose-response curve (AUC) MCC13 Replicate 2 [1]: 414.9 | Area under the dose-response curve (AUC) MCC13 Replicate 3 [1]: 433.1 | MCC13_AUC [1]: 505.746 | Area under the dose-response curve (AUC) MCC26 Replicate 1 [2]: 392.5 | Area under the dose-response curve (AUC) MCC26 Replicate 2 [2]: 398.0 | Area under the dose-response curve (AUC) MCC26 Replicate 3 [2]: 386.6 | MCC26_AUC [2]: 506.622 | Area under the dose-response curve (AUC) UISO Replicate 1 [3]: 419.6 | Area under the dose-response curve (AUC) UISO Replicate 2 [3]: 426.0 | Area under the dose-response curve (AUC) UISO Replicate 3 [3]: 431.4 | UISO_AUC [3]: 484.969 | Area under the dose-response curve (AUC) WAGA Replicate 1 [4]: 390.4 | Area under the dose-response curve (AUC) WAGA Replicate 2 [4]: 444.0 | Area under the dose-response curve (AUC) WAGA Replicate 3 [4]: 465.6 | WAGA_AUC [4]: 431.369 | Area under the dose-response curve (AUC) MKL-1 Replicate 1 [5]: 417.4 | Area under the dose-response curve (AUC) MKL-1 Replicate 2 [5]: 456.9 | Area under the dose-response curve (AUC) MKL-1 Replicate 3 [5]: 460.6 | MKL1_AUC [5]: 433.03 | Area under the dose-response curve (AUC) MKL-2 Replicate 1 [6]: 408.4 | Area under the dose-response curve (AUC) MKL-2 Replicate 2 [6]: 434.1 | Area under the dose-response curve (AUC) MKL-2 Replicate 3 [6]: 442.8 | MKL2_AUC [6]: 431.749 | HACAT_AUC [7]: 466.176 | HEK293T_AUC [8]: 476.067 | NIH3T3_AUC [9]: 465.601 | CRL7250_AUC [10]: 461.56

CC(C)(C)NCC(O)c1cc(O)cc(O)c1.CC(C)(C)NCC(O)c1cc(O)cc(O)c1.O=S(=O)(O)O (stereo not shown) [Terbutaline hemisulfate]
MCC13_AUC [1, 15]: 446.456 | MCC26_AUC [2, 16]: 430.481 | UISO_AUC [3, 17]: 427.113 | WAGA_AUC [4, 18]: 449.356 | MKL1_AUC ([5]; area under the dose-response curve, MKL-1 cells, AUC<450 = reduced viability): 438.666 | MKL2_AUC [6, 19]: 440.746 | HACAT_AUC [7, 20]: 496.73 | HEK293T_AUC [8, 21]: 465.552 | NIH3T3_AUC [9, 22]: 463.76 | CRL7250_AUC [10, 23]: 479.05

CCc1c2c(nc3ccc(OC(=O)N4CCC(N5CCCCC5)CC4)cc13)-c1cc3c(c(=O)n1C2)COC(=O)[C@]3(O)CC.Cl [Irinotecan hydrochloride]
Control-VP-MCC [11]: 114.533 | Control-VN-MCC [12]: 24.3005 | Control-MCC [13]: 69.4165

CN1CC[C@]23c4c5ccc(O)c4O[C@H]2[C@@H](O)C=C[C@H]3[C@H]1C5 [Morphine sulfate pentahydrate]
Control-MCC [14]: 52.6315 | Control-VP-MCC [11]: 53.1007 | Control-VN-MCC [12]: 52.1622 | Control-MCC [13]: 52.6314

Cc1nc2c([nH]1)c(=O)n(C)c(=O)n2Cc1ccco1 [Furafylline]
MCC13_AUC [1, 15]: 444.774 | MCC26_AUC [2, 16]: 399.611 | UISO_AUC [3, 17]: 447.137 | WAGA_AUC [4, 18]: 445.554 | MKL1_AUC ([5]; {}): 414.343 | MKL2_AUC [6, 19]: 443.745 | HACAT_AUC [7, 20]: 476.414 | HEK293T_AUC [8, 21]: 497.799 | NIH3T3_AUC [9, 22]: 485.732 | CRL7250_AUC [10, 23]: 466.658

CC(C)CN(C[C@@H](O)[C@H](Cc1ccccc1)NC(=O)O[C@H]1CO[C@H]2OCC[C@H]21)S(=O)(=O)c1ccc(N)cc1 [Darunavir]
MCC13_AUC [1]: 471.675 | MCC26_AUC [2]: 501.486 | UISO_AUC [3]: 505.158 | WAGA_AUC [4]: 433.192 | MKL1_AUC [5]: 420.268 | MKL2_AUC [6]: 413.603 | HACAT_AUC [7]: 465.16 | HEK293T_AUC [8]: 472.283 | NIH3T3_AUC [9]: 481.353 | CRL7250_AUC [10]: 469.055

CC(N[C@H]1CCCC[C@@H]1NC(=O)c1ccc(Cl)cc1)c1cccc2ccccc12 (stereo partly shown) [Calhex-231]
MCC13_AUC [1]: 461.512 | MCC26_AUC [2]: 461.125 | UISO_AUC [3]: 470.957 | WAGA_AUC [4]: 428.682 | MKL1_AUC [5]: 380.302 | MKL2_AUC [6]: 347.428 | HACAT_AUC [7]: 466.353 | HEK293T_AUC [8]: 469.437 | NIH3T3_AUC [9]: 459.862 | CRL7250_AUC [10]: 474.743

Cc1ncc(CNC(=O)N(CCCl)N=O)c(N)n1 [Nimustine]
MCC13_AUC [1]: 434.577 | MCC26_AUC [2]: 438.698 | UISO_AUC [3]: 443.983 | WAGA_AUC [4]: 465.895 | MKL1_AUC [5]: 478.611 | MKL2_AUC [6]: 504.085 | HACAT_AUC [7]: 461.645 | HEK293T_AUC [8]: 481.182 | NIH3T3_AUC [9]: 486.849 | CRL7250_AUC [10]: 491.102

— PMC11822212, “High-throughput screening identifies Aurora kinase B as a critical therapeutic target for Merkel cell carcinoma” (Nature Communications, 2025)
